{"source": "patent US9730940B2", "about": "“Purine inhibitors of human phosphatidylinositol 3-kinase delta” (priority 2012, dated 2017)", "data": [{"molecular_target": "PI3K-alpha (Homo sapiens (Human), UniProt P42336)", "sequence (P42336 whole entry, looked up, canonical isoform)": "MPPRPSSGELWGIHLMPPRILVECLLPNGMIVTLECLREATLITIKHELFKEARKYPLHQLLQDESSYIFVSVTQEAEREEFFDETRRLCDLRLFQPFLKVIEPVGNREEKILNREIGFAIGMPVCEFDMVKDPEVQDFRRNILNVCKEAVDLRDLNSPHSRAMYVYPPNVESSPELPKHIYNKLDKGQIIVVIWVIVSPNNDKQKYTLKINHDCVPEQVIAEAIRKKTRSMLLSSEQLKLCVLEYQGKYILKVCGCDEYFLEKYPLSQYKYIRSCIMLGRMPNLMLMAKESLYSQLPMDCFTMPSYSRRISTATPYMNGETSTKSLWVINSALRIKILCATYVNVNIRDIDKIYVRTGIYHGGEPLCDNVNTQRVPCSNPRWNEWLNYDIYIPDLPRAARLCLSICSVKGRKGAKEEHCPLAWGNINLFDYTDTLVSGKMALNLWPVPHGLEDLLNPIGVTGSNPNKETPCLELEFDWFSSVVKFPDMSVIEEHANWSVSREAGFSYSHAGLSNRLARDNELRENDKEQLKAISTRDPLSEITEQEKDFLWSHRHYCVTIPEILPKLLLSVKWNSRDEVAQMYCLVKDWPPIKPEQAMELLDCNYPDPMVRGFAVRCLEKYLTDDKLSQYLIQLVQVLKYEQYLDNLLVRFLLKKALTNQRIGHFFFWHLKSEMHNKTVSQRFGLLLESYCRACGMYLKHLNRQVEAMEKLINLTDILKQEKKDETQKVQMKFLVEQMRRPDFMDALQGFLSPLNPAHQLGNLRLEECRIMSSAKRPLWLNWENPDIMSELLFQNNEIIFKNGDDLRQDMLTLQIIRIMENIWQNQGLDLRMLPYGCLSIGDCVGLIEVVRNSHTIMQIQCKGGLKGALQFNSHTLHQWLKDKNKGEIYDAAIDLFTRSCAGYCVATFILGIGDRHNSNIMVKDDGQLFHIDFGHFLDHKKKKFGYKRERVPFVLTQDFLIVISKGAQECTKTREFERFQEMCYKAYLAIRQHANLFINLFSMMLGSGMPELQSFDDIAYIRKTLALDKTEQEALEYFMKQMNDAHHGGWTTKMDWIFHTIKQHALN", "sequence (P27986 whole entry partner, looked up, canonical isoform)": "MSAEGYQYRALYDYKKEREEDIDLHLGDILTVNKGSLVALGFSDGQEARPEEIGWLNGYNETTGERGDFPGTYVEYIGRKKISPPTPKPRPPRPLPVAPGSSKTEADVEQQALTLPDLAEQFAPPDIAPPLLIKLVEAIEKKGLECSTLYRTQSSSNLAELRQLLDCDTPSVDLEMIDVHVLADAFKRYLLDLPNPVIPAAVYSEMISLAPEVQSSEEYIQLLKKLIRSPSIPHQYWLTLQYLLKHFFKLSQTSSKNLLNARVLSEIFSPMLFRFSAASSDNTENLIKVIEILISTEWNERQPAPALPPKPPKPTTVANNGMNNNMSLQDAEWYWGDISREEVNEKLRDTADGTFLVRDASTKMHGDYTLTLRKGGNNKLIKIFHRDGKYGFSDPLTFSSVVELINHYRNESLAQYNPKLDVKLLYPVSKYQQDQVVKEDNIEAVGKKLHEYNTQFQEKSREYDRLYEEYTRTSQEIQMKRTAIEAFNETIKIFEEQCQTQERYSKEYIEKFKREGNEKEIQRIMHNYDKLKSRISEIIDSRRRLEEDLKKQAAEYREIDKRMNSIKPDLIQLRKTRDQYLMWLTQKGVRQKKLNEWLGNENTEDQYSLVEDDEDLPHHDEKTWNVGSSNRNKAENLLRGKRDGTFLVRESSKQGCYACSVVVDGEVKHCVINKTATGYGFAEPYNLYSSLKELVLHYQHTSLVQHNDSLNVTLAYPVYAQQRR", "assay": "HTRF PI3K biochemical assay, alpha isoform", "conditions": "ratio PI3K-alpha IC50 value/PI3K-delta IC50 value", "values": [{"smiles": "CCn1ncc(-c2nc3c(O[C@H]4CCN(C(=O)c5ccncc5)C4)ncnc3n2C)c1C", "note": "[Compound 2-64, 8-(1-ethyl-5-methyl-1H-pyrazol-4-yl)-9-methyl-6-{[(3S)-1-(pyridin-4-ylcarbonyl)pyrrolidin-3-yl]oxy}-9H-purine]", "Relative Selectivity versus PI3Kalpha": ">10"}, {"smiles": "CCn1ncc(-c2nc3c(O[C@H]4CCN(C(=O)c5cnoc5C)C4)ncnc3n2C)c1C", "note": "[Compound 2-65, 8-(1-ethyl-5-methyl-1H-pyrazol-4-yl)-9-methyl-6-({(3S)-1-[(5-methylisoxazol-4-yl)carbonyl]pyrrolidin-3-yl}oxy)-9H-purine]", "Relative Selectivity versus PI3Kalpha": ">10"}, {"smiles": "CCn1ncc(-c2nc3c(O[C@H]4CCN(C(=O)c5ccccn5)C4)ncnc3n2C)c1C", "note": "[Compound 2-66, 8-(1-ethyl-5-methyl-1H-pyrazol-4-yl)-9-methyl-6-{[(3S)-1-(pyridin-2-ylcarbonyl)pyirolidin-3-yl]oxy}-9H-purine]", "Relative Selectivity versus PI3Kalpha": ">10"}, {"smiles": "CCn1ncc(-c2nc3c(O[C@H]4CCN(C(=O)c5cccn5C)C4)ncnc3n2C)c1C", "note": "[Compound 2-67, 8-(1-ethyl-5-methyl-1H-pyrazol-4-yl)-9-methyl-6-({(3S)-1-[(1-methyl-1H-pyrrol-2-yl)carbonyl]pyrrolidin-3-yl}oxy)-9H-purine]", "Relative Selectivity versus PI3Kalpha": ">10"}, {"smiles": "CCc1oncc1C(=O)N1CC[C@H](Oc2ncnc3c2nc(-c2cnn(CC)c2C)n3C)C1", "note": "[Compound 2-68, 6-({(3S)-1-[(5-ethylisoxazol-4-yl)carbonyl]pyrrolidin-3-yl}oxy)-8-(1-ethyl-5-methyl-1H-pyrazol-4-yl)-9-methyl-9H-purine]", "Relative Selectivity versus PI3Kalpha": ">10"}, {"smiles": "CCn1ncc(-c2nc3c(O[C@H]4CCN(C(=O)c5oncc5C)C4)ncnc3n2C)c1C", "note": "[Compound 2-69, 8-(1-ethyl-5-methyl-1H-pyrazol-4-yl)-9-methyl-6-({(3S)-1-[(4-methylisoxazol-5-yl)carbonyl]pyrrolidin-3-yl}oxy)-9H-purine]", "Relative Selectivity versus PI3Kalpha": ">10"}, {"smiles": "CCn1ncc(-c2nc3c(O[C@H]4CCN(C(=O)c5ocnc5C)C4)ncnc3n2C)c1C", "note": "[Compound 2-71, 8-(1-ethyl-5-methyl-1H-pyrazol-4-yl)-9-methyl-6-({(3S)-1-[(4-methyl-1,3-oxazol-5-yl)carbonyl]pyrrolidin-3-yl}oxy)-9H-purine]", "Relative Selectivity versus PI3Kalpha": ">10"}, {"smiles": "CCn1ncc(-c2nc3c(O[C@H]4CCN(C(=O)c5cn[nH]c5)C4)ncnc3n2C)c1C", "note": "[Compound 2-72, 8-(1-ethyl-5-methyl-1H-pyrazol-4-yl)-9-methyl-6-{[(3S)-1-(1H-pyrazol-4-ylcarbonyl)pyrrolidin-3-yl]oxy}-9H-purine]", "Relative Selectivity versus PI3Kalpha": 9}, {"smiles": "CCn1ncc(-c2nc3c(O[C@H]4CCN(C(=O)c5cncn5C)C4)ncnc3n2C)c1C", "note": "[Compound 2-73]", "Relative Selectivity versus PI3Kalpha": ">10"}, {"smiles": "CCn1ncc(-c2nc3c(O[C@H]4CCN(C(=O)c5cc(C)[nH]n5)C4)ncnc3n2C)c1C", "note": "[Compound 2-75, 8-(1-ethyl-5-methyl-1H-pyrazol-4-yl)-9-methyl-6-({(3S)-1-[(5-methyl-1H-pyrazol-3-yl)carbonyl]pyrrolidin-3-yl}oxy)-9H-purine]", "Relative Selectivity versus PI3Kalpha": 5}, {"smiles": "CCn1ncc(-c2nc3c(O[C@H]4CCN(C(=O)C5CC(=O)N(C(C)C)C5)C4)ncnc3n2C)c1C", "note": "(stereo partly drawn) [Compound 2-77, 4-{[(3S)-3-{[8-(1-ethyl-5-methyl-1H-pyrazol-4-yl)-9-methyl-9H-purin-6-yl]oxy}pyrrolidin-1-yl]carbonyl}-1-(1-methylethyl)pyrrolidin-2-one]", "Relative Selectivity versus PI3Kalpha": ">10"}, {"smiles": "CCn1ncc(-c2nc3c(O[C@H]4CCN(C(=O)c5cc(C)n(C)c5C)C4)ncnc3n2C)c1C", "note": "[Compound 2-79, 8-(1-ethyl-5-methyl-1H-pyrazol-4-yl)-9-methyl-6-({(3S)-1-[(1,2,5-trimethyl-1H-pyrrol-3-yl)carbonyl]pyrrolidin-3-yl}oxy)-9H-purine]", "Relative Selectivity versus PI3Kalpha": ">10"}, {"smiles": "CCn1ncc(-c2nc3c(O[C@H]4CCN(C(=O)c5cnn(C)c5)C4)ncnc3n2C)c1C", "note": "[Compound 2-80, 8-(1-ethyl-5-methyl-1H-pyrazol-4-yl)-9-methyl-6-({(3S)-1-[(1-methyl-1H-pyrazol-4-yl)carbonyl]pyrrolidin-3-yl}oxy)-9H-purine]", "Relative Selectivity versus PI3Kalpha": 6}, {"smiles": "CCn1ncc(-c2nc3c(O[C@H]4CCN(C(=O)c5nnc(C)o5)C4)ncnc3n2C)c1C", "note": "[Compound 2-81, 8-(1-ethyl-5-methyl-1H-pyrazol-4-yl)-9-methyl-6-({(3S)-1-[(5-methyl-1,3,4-oxadiazol-2-yl)carbonyl]pyrrolidin-3-yl}oxy)-9H-purine]", "Relative Selectivity versus PI3Kalpha": 5}, {"smiles": "CCn1ncc(-c2nc3c(O[C@H]4CCN(C(=O)C5CCc6nnnn65)C4)ncnc3n2C)c1C", "note": "(stereo partly drawn) [Compound 2-84, 6-{[(3S)-1-(6,7-dihydro-5H-pyrrolo[1,2-d]tetrazol-5-ylcarbonyl)pyrrolidin-3-yl]oxy}-8-(1-ethyl-5-methyl-1H-pyrazol-4-yl)-9-methyl-9H-purine (non-preferred name)]", "Relative Selectivity versus PI3Kalpha": ">10"}, {"smiles": "CCc1nc(C)c(C(=O)N2CC[C@H](Oc3ncnc4c3nc(-c3cnn(CC)c3C)n4C)C2)o1", "note": "[Compound 2-86, 6-({(3S)-1-[(2-ethyl-4-methyl-1,3-oxazol-5-yl)carbonyl]pyrrolidin-3-yl}oxy)-8-(1-ethyl-5-methyl-1H-pyrazol-4-yl)-9-methyl-9H-purine]", "Relative Selectivity versus PI3Kalpha": ">10"}, {"smiles": "CCn1ncc(-c2nc3c(O[C@H]4CCN(C(=O)c5cnoc5C(C)C)C4)ncnc3n2C)c1C", "note": "[Compound 2-87, 8-(1-ethyl-5-methyl-1H-pyrazol-4-yl)-9-methyl-6-{[(3S)-1-{[5-(1-methylethyl)isoxazol-4-yl]carbonyl}pyrrolidin-3-yl]oxy}-9H-purine]", "Relative Selectivity versus PI3Kalpha": ">10"}, {"smiles": "CCn1ncc(-c2nc3c(O[C@H]4CCN(C(=O)c5cocn5)C4)ncnc3n2C)c1C", "note": "[Compound 2-88, 8-(1-ethyl-5-methyl-1H-pyrazol-4-yl)-9-methyl-6-{[(3S)-1-(1,3-oxazol-4-ylcarbonyl)pyrrolidin-3-yl]oxy}-9H-purine]", "Relative Selectivity versus PI3Kalpha": ">10"}, {"smiles": "CCC(=O)N1CC[C@H](Oc2ncnc3c2nc(-c2cnc(OC)c(C)c2)n3CC)C1", "note": "[Compound 2-89, (S)-1-(3-((9-ethyl-8-(6-methoxy-5-methylpyridin-3-yl)-9H-purin-6-yl)oxy)pyrrolidin-1-yl)propan-1-one]", "Relative Selectivity versus PI3Kalpha": ">10"}, {"smiles": "CCn1ncc(-c2nc3c(O[C@H]4CCN(C(C)=O)C4)ncnc3n2C)c1C", "note": "[Compound 2-90, (S)-1-(3-((8-(1-ethyl-5-methyl-1H-pyrazol-4-yl)-9-methyl-9H-purin-6-yl)oxy)pyrrolidin-1-yl)ethanone]", "Relative Selectivity versus PI3Kalpha": ">10"}, {"smiles": "CCn1ncc(-c2nc3c(O[C@H]4CCN(C(=O)C(C)C)C4)ncnc3n2C)c1C", "note": "[Compound 2-91, (S)-1-(3-((8-(1-ethyl-5-methyl-1H-pyrazol-4-yl)-9-methyl-9H-purin-6-yl)oxy)pyrrolidin-1-yl)-2-methylpropan-1-one]", "Relative Selectivity versus PI3Kalpha": ">10"}, {"smiles": "CCn1ncc(-c2nc3c(O[C@H]4CCN(C(=O)C(C)(C)C)C4)ncnc3n2C)c1C", "note": "[Compound 2-92, (S)-1-(3-((8-(1-ethyl-5-methyl-1H-pyrazol-4-yl)-9-methyl-9H-purin-6-yl)oxy)pyrrolidin-1-yl)-2,2-dimethylpropan-1-one]", "Relative Selectivity versus PI3Kalpha": ">10"}]}]}
